Reference: patent US11160764B2, “Drug delivery composition containing silyl polymers” (Medherant Limited, priority 2015, dated 2021)
Converted amounts (≈) assume the structure as drawn.

Columns and labels:
[1] = Solubility of drugs in the adhesive compositions / patches
Method: Three different grades of composition were employed in solubility experiments: A, B and C (see below). A is the grade which was used for initial studies and further was used as the standard grade for solubility tests.
A sample of composition is pre-heated to 80° C. in a closed cartridge or inert environment to avoid contact with moisture and approximately 10 ml of the composition is added into a beaker and weighed. A desired quantity of drug, preservative and excipients are then added to the mixture. The mixture is mixed until it has been homogenised and is then cast with the help of a heated Meyer bar onto a release liner. Once cast, the layers of composition are cured at 60° C. in a humid environment during 16 hours.
In all experiments benzyl alcohol (BenzOH) was employed as a co-solvent. BenzOH is widely used in both pharmaceutical and cosmetic formulations as a preservative, and therefore its addition is required to improve the shelf life of patches. […] Additionally, it acts as a solvent for drugs improving their dissolution in the polymer matrix compositions. The total amount of BenzOH in all formulations was in a range of 1-3% w/w.
All compounds in the liquid state were added by volume, which was estimated using their specific densities.

[2] = cited from earlier work
[3] = Drug release analysis: permeation from patch across Pion membrane in Franz cell; conditions: patch of the invention, PBS pH 7.4
Method: The membrane and patch are then placed in a Franz cell and then a PBS pH 7.4 buffer solution is added. Samples are taken at one hour interval for 8 hours. The amount of drug released is calculated using a validated HPLC/UV-Vis method depending on the drug in question.

COC(=O)c1ccccc1O [Methyl salicylate]
Sol. type [1]: Molecular | Solubility in adhesive F15 ([1]; adhesive grade F15): ✓ | Solubility in adhesive F16 ([1]; adhesive grade F16): ✓ | Solubility in adhesive F17 ([1]; adhesive grade F17): ✓ | Conc., wt % ([1]; grade A composition): >5 wt % | Solubility of analgesic drugs in compositions: A ([1]; grade A composition): ✓ | Max. mass fraction ([1]; grade A composition (Table 5)): 30% | Soluble in A ([1]; grade A composition (Table 5)): ✓ | Conc., wt % ([1]; grade B composition): >5 wt % | Solubility of analgesic drugs in compositions: B ([1]; grade B composition): ✓ | Drug solubility compared between all three grades ([1]; grades A, B and C): identical | Solubility in the standard grade (A) composition, in words ([1]; standard grade (A)): readily soluble | Solubility in water [2]: 690 µg/mL (≈ 4.54 mM) | Permeated drug amount ([3]; sample 1 hours): 18.25 μg cm^−2 | Permeated drug amount ([3]; sample 2 hours): 24.58 μg cm^−2 | Permeated drug amount ([3]; sample 4 hours): 59.78 μg cm^−2 | Permeated drug amount ([3]; sample 6 hours): 83.03 μg cm^−2
